Measurements from PubChem BioAssay AID1845211 (Molecular Pharmacology Branch, DTP, NCI, 2023).
pIC50: −log10 of the molar value.

Tested on: NCI-H322M multicellular tumor spheroids, viability (% test/control)
Test: Anticancer human tumor NCI-H322M cell line growth inhibition;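 for viability, T/C: spheroids exposed to compound for seven days before readout; 100% = DMSO vehicle control wells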
Details: for pIC50: curve of first compound; for viability, T/C: stronger effect = lower value
Text: Multicellular complex tumor spheroid response to DNA repair inhibitors in combination with DNA-damaging drugs
This study explores the anticancer activities of DNA-damaging drugs and inhibitors of DNA damage repair, both as single agents and in combinations. Complex tumor spheroids comprised of malignant cells, endothelial cells and mesenchymal stem cells served as an in vitro model for human solid tumors. This model system incorporates physiologically relevant features and patient-derived or established malignant cell lines with clinically relevant genetic alterations from many tumor types. Twenty-six patient-derived or established malignant cell lines were evaluated representing sarcoma, melanoma, small cell lung cancer (SCLC), non-small cell lung cancer (NSCLC), as well as bladder, ovarian and pancreatic cancers. The concentration ranges selected for each drug and investigational agent were based upon clinically achievable concentrations if the clinical Cmax of the agent was known.
Compounds. The drugs and compounds olaparib (NSC753686), talazoparib (NSC767125), berzosertib (NSC777718), elimusertib (NSC800525), nedisertib (NSC802822), VX-984 (NSC792969), AZD-1390 (NSC803789), temozolomide (NSC362856), topotecan (NSC609699), trabectedin (NSC813783), staurosporine (NSC755774), and gemcitabine (NSC613327) were obtained from the National Cancer Institute (NCI) Developmental Therapeutics Program Chemical Repository. The FDA-approved anticancer drug set is available from the Developmental Therapeutics Program at https://dtp.cancer.gov/organization/dscb/obtaining/available_plates.htm. […] The stock solutions were prepared in dimethyl sulfoxide (DMSO, Sigma-Aldrich, St. Louis, MO, cat. D2650) at 400-fold the tested concentration and stored at -70 degrees C. Prior to their use, the stock solutions were diluted in fresh medium and the final DMSO concentration in the assay was 0.25% (v/v). All drugs and investigational agents were tested over a range starting from a high concentration at or near the clinical Cmax and decreasing in half-log increments. If the clinical Cmax for an agent had not been determined, the highest concentration tested was 10 microM.
Cell Lines. The patient-derived cancer cell (PDC) lines: 156681-154-R-J1-PDC, 283228-195-R-J1-PDC, 287954-098-R-J1-PDC, 292921-168-R-J2-PDC, 349418-098-R-PDC, 425362-245-T-J1-PDC, 556581-035-R-J1-PDC, and BL0293-F563-PDC were received from the NCI Patient-Derived Models Repository (PDMR, https://pdmr.cancer.gov). The established cell lines HS-SY-2 (RRID:CVCL_8719), MPNST, and SYO-1 (RRID:CVCL_7146) were obtained from the Sloan Kettering Institute. The alveolar soft parts sarcoma cell line ASPS-1 (RRID:CVCL_S738) was established at the NCI and grown from internal seed stocks. The following established cell lines were purchased from the American Type Culture Collection (ATCC, Manassas, VA): G-401 (ATCC, cat. CRL-1441, RRID:CVCL_0270), SW982 (ATCC, cat. HTB-93, RRID:CVCL_1734), VA-ES-BJ (ATCC, cat. CRL-2138, RRID:CVCL_1785), NCI-H719 (ATCC, cat. CRL-5837, RRID:CVCL_1582), NCI-H196 (ATCC, cat. CRL-5823, RRID:CVCL_1509), NCI-H841 (ATCC, cat. CRL-5845, RRID:CVCL_1595), NCI-H1618 (ATCC, cat. CRL-5879, RRID:CVCL_1480), NCI-H1876 (ATCC, cat. CRL-5902, RRID:CVCL_1503), DMS 114 (ATCC, cat. CRL-2066; RRID:CVCL_1174), NCI-H211 (ATCC, cat. CRL-5824; RRID:CVCL_1529), and SW 1271 (ATCC, cat. CRL-2177, RRID:CVCL_1716). The small cell lung cancer cell line COR-L88 was purchased from Sigma-Aldrich (cat. 92031917-1VL, RRID:CVCL_1141). The non-small cell lung cancer cell lines NCI-H226 (RRID:CVCL_1544) and NCI-H322M (RRID:CVCL_1557) were established at the NCI and grown from internal seed stocks. Pooled donor human umbilical vein endothelial cells (HUVEC, Lonza, cat. CC-2519) and human mesenchymal stem cells (hMSC, Lonza, cat. PT-2501) were purchased from Lonza (Walkersville, MD).
Cell Culture. All cells were maintained in an incubator at 37 degrees C and 5% CO2 with 95% humidity. […]

[1] = second compound 0.003 µM, first compound 0.0949 µM
[2] = second compound 0.003 µM, first compound 0.3 µM
[3] = second compound 0.003 µM, first compound 0.949 µM
[4] = second compound 0.003 µM, first compound 3 µM
[5] = second compound 0.00949 µM, first compound 0.0949 µM
[6] = second compound 0.00949 µM, first compound 0.3 µM
[7] = second compound 0.00949 µM, first compound 0.949 µM
[8] = second compound 0.00949 µM, first compound 3 µM
[9] = second compound 0.03 µM, first compound 0.0949 µM
[10] = second compound 0.03 µM, first compound 0.3 µM
[11] = second compound 0.03 µM, first compound 0.949 µM
[12] = second compound 0.03 µM, first compound 3 µM
[13] = second compound 0.0949 µM, first compound 0.0949 µM
[14] = second compound 0.0949 µM, first compound 0.3 µM
[15] = second compound 0.0949 µM, first compound 0.949 µM
[16] = second compound 0.0949 µM, first compound 3 µM
[17] = second compound 0.3 µM, first compound 0.0949 µM
[18] = second compound 0.3 µM, first compound 0.3 µM
[19] = second compound 0.3 µM, first compound 0.949 µM
[20] = second compound 0.3 µM, first compound 3 µM

`O=C(c1cc(Cc2n[nH]c(=O)c3ccccc23)ccc1F)N1CCN(C(=O)C2CC2)CC1` + CC[C@@]1(O)C(=O)OCc2c1cc1n(c2=O)Cc2cc3c(CN(C)C)c(O)ccc3nc2-1 was tested, and the pIC50 (second compound 0.003 µM) was < 4.52, the pIC50 (second compound 0.00949 µM) was < 4.52 and the pIC50 (second compound 0.03 µM) was < 4.52. The pIC50 (second compound 0.0949 µM) was < 4.52, the pIC50 (second compound 0.3 µM) was > 7.02 and the viability, T/C [1] was 77.7%. The viability, T/C [2] was 78.8%, the viability, T/C [3] was 79.2% and the viability, T/C [4] was 87.3%. It also gave a viability, T/C (second compound 0.003 µM, first compound 9.49 µM) of 95.8%, a viability, T/C (second compound 0.003 µM, first compound 30 µM) of 78.2% and a viability, T/C [5] of 85.7%. The viability, T/C [6] was 73%, the viability, T/C [7] was 71.6% and the viability, T/C [8] was 77%. The viability, T/C (second compound 0.00949 µM, first compound 9.49 µM) was 66.9%, the viability, T/C (second compound 0.00949 µM, first compound 30 µM) was 83.5% and the viability, T/C [9] was 67.5%. The viability, T/C [10] was 69.7%, the viability, T/C [11] was 78.4% and the viability, T/C [12] was 78.5%. It also gave a viability, T/C (second compound 0.03 µM, first compound 9.49 µM) of 78.5%, a viability, T/C (second compound 0.03 µM, first compound 30 µM) of 75.4% and a viability, T/C [13] of 56.4%. It also gave a viability, T/C [14] of 57.6%, a viability, T/C [15] of 60.5% and a viability, T/C [16] of 51.4%. The viability, T/C (second compound 0.0949 µM, first compound 9.49 µM) was 50.5%, the viability, T/C (second compound 0.0949 µM, first compound 30 µM) was 61.1% and the viability, T/C [17] was 42.5%. For the same compound, the viability, T/C [18] was 48.8%, the viability, T/C [19] was 45.3% and the viability, T/C [20] was 49.6%. For the same compound, the viability, T/C (second compound 0.3 µM, first compound 9.49 µM) was 55.1% and the viability, T/C (second compound 0.3 µM, first compound 30 µM) was 46.5%.

With `Cn1ncnc1[C@H]1c2n[nH]c(=O)c3cc(F)cc(c23)N[C@@H]1c1ccc(F)cc1` + CC[C@@]1(O)C(=O)OCc2c1cc1n(c2=O)Cc2cc3c(CN(C)C)c(O)ccc3nc2-1 the pIC50 (second compound 0.003 µM) was < 5.52, the pIC50 (second compound 0.00949 µM) was < 5.52 and the pIC50 (second compound 0.03 µM) was < 5.52. It also gave a pIC50 (second compound 0.0949 µM) of 5.79, a pIC50 (second compound 0.3 µM) of 8.02 and a viability, T/C (second compound 0.003 µM, first compound 0.00949 µM) of 84.3%. It also gave a viability, T/C (second compound 0.003 µM, first compound 0.03 µM) of 87.1%, a viability, T/C [1] of 89.6% and a viability, T/C [2] of 71.9%. For the same compound, the viability, T/C [3] was 79.6%, the viability, T/C [4] was 68.6% and the viability, T/C (second compound 0.00949 µM, first compound 0.00949 µM) was 85.1%. The viability, T/C (second compound 0.00949 µM, first compound 0.03 µM) was 78.2%, the viability, T/C [5] was 80.6% and the viability, T/C [6] was 73.7%. It also gave a viability, T/C [7] of 69%, a viability, T/C [8] of 70.7% and a viability, T/C (second compound 0.03 µM, first compound 0.00949 µM) of 76.6%. It also gave a viability, T/C (second compound 0.03 µM, first compound 0.03 µM) of 72.5%, a viability, T/C [9] of 78.4% and a viability, T/C [10] of 70.2%. It also gave a viability, T/C [11] of 63.7%, a viability, T/C [12] of 65% and a viability, T/C (second compound 0.0949 µM, first compound 0.00949 µM) of 67.4%. It also gave a viability, T/C (second compound 0.0949 µM, first compound 0.03 µM) of 56.3%, a viability, T/C [13] of 59.4% and a viability, T/C [14] of 51.5%. The viability, T/C [15] was 51.2%, the viability, T/C [16] was 50.2% and the viability, T/C (second compound 0.3 µM, first compound 0.00949 µM) was 50.8%. The viability, T/C (second compound 0.3 µM, first compound 0.03 µM) was 46.2%, the viability, T/C [17] was 49.2% and the viability, T/C [18] was 49.9%. For the same compound, the viability, T/C [19] was 47% and the viability, T/C [20] was 44.1%.
